From ChEMBL document CHEMBL3045620, “Trypsin inhibitory potential and microbial transformation of rutin isolated from Citrus sinensis” (Med Chem Res, 2013) come the findings set out here.

Common to all, as to type: protein assay
Assay [1] addresses T1, Trypsin (Homo sapiens, UniProt P07477+P07478+P35030). The experiment in a line: Non-competitive inhibition of trypsin (unknown origin) using BApNA as substrate by Lineweaver-Burk/Dixon plot analysis.
In assay [2] the target is T1, Trypsin. As to the kind of experiment: Inhibition of trypsin (unknown origin) using BApNA as substrate incubated for 15 min prior to substrate addition measured after 30 min by UV/VIS spectrophotometric analysis.
Assay [3] deals with T1, Trypsin. The experiment in a line: Inhibition of trypsin (unknown origin) using BApNA as substrate at 2 mg/ml incubated for 15 min prior to substrate addition measured after 30 min by UV/VIS spectrophotometric analysis.

Compound `O=c1c(O)c(-c2ccc(O)c(O)c2)oc2cc(O)cc(O)c12` [QUERCETIN] came in with an inhibition constant (Ki) in assay [1] of 13.1 µM. The compound also gave a 50% inhibitory concentration (IC50) in assay [2] of 19 µM. For the same compound, the inhibition in assay [3] was 84.1%.

The compound `C[C@@H]1O[C@@H](OC[C@H]2O[C@@H](Oc3c(-c4ccc(O)c(O)c4)oc4cc(O)cc(O)c4c3=O)[C@H](O)[C@@H](O)[C@@H]2O)[C@H](O)[C@H](O)[C@H]1O` [RUTIN] gave a Ki in assay [1] of 17.5 µM. The compound further returned a concentration for half-maximal inhibition (IC50) in assay [2] of 16 µM. Besides, the inhibition in assay [3] worked out at 75.2%.

For the compound `O=S(=O)(F)Cc1ccccc1` [PHENYLMETHYLSULFONYLFLUORIDE], in assay [2], the IC50 was 110 µM. In assay [3], this compound yielded an inhibition of 87.4%.

What is called Ki is a dissociation constant, usually derived from enzyme kinetics or from competition with a known ligand. Read a high Ki as a looser hold on the target. In general, IC50 refers to the concentration needed to halve the response being measured. A lower IC50 goes with higher potency. One may read the inhibition as the change of the read-out against control, counted positive when it falls. A high value points to a response far below the control.
